Data as given in the supplement of paper PMC10307832.

What was measured:
Assay in all cases: relative viability (nuclei count vs DMSO), 5 days (fraction); higher = more cells survive
[1] = compound: COc1cc2ncn(-c3cc(OCc4ccccc4C(F)(F)F)c(C(N)=O)s3)c2cc1OC + O=C(CCCCCCC(=O)Nc1ccccc1)NO [Vorinostat] (partner 1 µM)
In short: (§1)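 Each reported value is a median over duplicate plates. It expresses relative viability: treated-well nuclei count divided by vehicle-well nuclei count. Lung cancer cell lines in 1536-well plates were dosed by pin tool a day after seeding, alone with one drug or with a fixed anchor-drug dose plus five library-drug doses (not always all listed) in √10 steps, and nuclei were counted after 5 days.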

[2] = compound: COc1cc2ncn(-c3cc(OCc4ccccc4C(F)(F)F)c(C(N)=O)s3)c2cc1OC + CC(=O)c1c(C)c2cnc(Nc3ccc(N4CCNCC4)cn3)nc2n(C2CCCC2)c1=O [Palbociclib] (partner 0.5 µM)
In short: as §1

[3] = compound: COc1cc2ncn(-c3cc(OCc4ccccc4C(F)(F)F)c(C(N)=O)s3)c2cc1OC + Cc1nc(Nc2ncc(C(=O)Nc3c(C)cccc3Cl)s2)cc(N2CCN(CCO)CC2)n1 [Dasatinib] (partner 0.075 µM)
In short: as §1

[4] = compound: COc1cc2ncn(-c3cc(OCc4ccccc4C(F)(F)F)c(C(N)=O)s3)c2cc1OC + Nc1nc2[nH]cc(CCc3ccc(C(=O)N[C@@H](CCC(=O)O)C(=O)O)cc3)c2c(=O)[nH]1 [Pemetrexed] (partner 0.2 µM)
In short: as §1

Cell Line	relative viability ([1]; first compound 0.05 µM)	relative viability ([1]; first compound 0.1581 µM)	relative viability ([1]; first compound 0.5 µM)	relative viability ([1]; first compound 1.581 µM)	relative viability ([1]; first compound 5 µM)	relative viability ([2]; first compound 0.05 µM)	relative viability ([2]; first compound 0.1581 µM)	relative viability ([2]; first compound 0.5 µM)	relative viability ([2]; first compound 1.581 µM)	relative viability ([2]; first compound 5 µM)	relative viability ([3]; first compound 0.05 µM)	relative viability ([3]; first compound 0.1581 µM)	relative viability ([3]; first compound 0.5 µM)	relative viability ([3]; first compound 1.581 µM)	relative viability ([3]; first compound 5 µM)	relative viability ([4]; first compound 0.05 µM)	relative viability ([4]; first compound 0.1581 µM)	relative viability ([4]; first compound 0.5 µM)	relative viability ([4]; first compound 1.581 µM)	relative viability ([4]; first compound 5 µM)
201T	1.01	0.994	0.815	0.283	0.195	0.363	0.38	0.335	0.349	0.28	0.543	0.536	0.546	0.45	0.244	0.355	0.319	0.29	0.303	0.192
A-427	0.88	0.947	0.684	0.194	0.154	0.553	0.479	0.502	0.331	0.236	0.839	0.501	0.602	0.175	0.088	1.05	1.02	0.887	0.257	0.203
ABC-1	1.59	0.849	0.58	0.369	0.305	0.665	0.777	0.748	0.583	0.37	0.539	0.542	0.469	0.276	0.239					
BEN	0.643	0.591	0.413	0.33	0.3	0.5	0.455	0.471	0.45	0.437	0.363	0.327	0.29	0.186	0.229	0.702	0.706	0.667	0.515	0.388
CAL-12T	0.674	0.558	0.268	0.141	0.159	0.411	0.422	0.381	0.187	0.148	0.415	0.249	0.0865	0.105	0.122	0.706	1.19	0.621	0.212	0.165
COR-L23	0.381	0.416	0.162	0.0758	0.0932	0.27	0.335	0.22	0.119	0.111	0.434	0.364	0.203	0.102	0.0618	0.201	0.208	0.166	0.156	0.154
COR-L 105	0.728	0.854	0.815	0.304	0.254	0.396	0.4	0.424	0.325	0.321	0.337	0.33	0.273	0.22	0.19	0.924	1.24	0.909	0.409	0.418
ChaGo-K-1	0.775	0.721	0.629	0.232	0.162	0.948	0.878	0.649	0.247	0.147	0.629	0.332	0.574	0.17	0.138	0.263	0.251	0.232	0.175	0.153
EKVX	0.745	0.836	0.477	0.363	0.167	0.362	0.438	0.371	0.248	0.219	0.661	0.604	0.425	0.271	0.224	0.395	0.302	0.334	0.244	0.242
EMC-BAC-2	0.899	0.535	0.305	0.223	0.158	0.478	0.512	0.476	0.376	0.272	0.328	0.361	0.296	0.168	0.139	0.459	0.446	0.441	0.338	0.311
EPLC-272H	0.175	0.181	0.0719	0.077	0.12	0.273	0.322	0.222	0.144	0.226		0.408	0.142	0.0755	0.103	0.25	0.206	0.104	0.121	0.206
H3255	0.806	0.492	0.627	0.606	0.481	0.315	0.285	0.306	0.256	0.264	0.346	0.349	0.344		0.279	0.556	0.602	0.552	0.332	0.341
HARA	0.358	0.421	0.237	0.0932	0.0592	0.224	0.251	0.234	0.173	0.127	0.242	0.299	0.284	0.0989	0.0669	0.242		0.24	0.176	0.126
HCC-15	0.618	0.769	0.349	0.139	0.127	0.729	0.702	0.519	0.167	0.141	0.582	0.548	0.242	0.105	0.0655	0.23	0.215	0.174	0.156	0.13
HCC-44	1.14	1.03	0.852	0.331	0.247	1.02	1.01	0.925	0.383	0.35						0.633	0.625	0.685	0.338	0.342
HCC-78	0.483	0.396	0.281	0.261	0.223	0.497	0.478	0.435	0.406	0.357	0.463	0.537	0.306	0.317	0.206	0.967	0.903	0.895	0.939	0.87
HCC-366	0.347	0.3	0.0923	0.0208	0.0152	0.136	0.372	0.248	0.0295	0.0149	0.675	0.67	0.338	0.0209	0.0192	0.166	0.155	0.0748	0.0321	0.0197
HCC-827	0.995	0.887	0.763	0.376	0.445	0.442	0.391	0.486	0.424	0.217	0.321	0.359	0.222	0.293	0.292	0.269	0.304	0.227	0.259	0.263

Cell Line	relative viability ([1]; first compound 0.05 µM)	relative viability ([1]; first compound 0.1581 µM)	relative viability ([1]; first compound 0.5 µM)	relative viability ([1]; first compound 1.581 µM)	relative viability ([1]; first compound 5 µM)	relative viability ([2]; first compound 0.05 µM)	relative viability ([2]; first compound 0.1581 µM)	relative viability ([2]; first compound 0.5 µM)	relative viability ([2]; first compound 1.581 µM)	relative viability ([2]; first compound 5 µM)	relative viability ([3]; first compound 0.05 µM)	relative viability ([3]; first compound 0.1581 µM)	relative viability ([3]; first compound 0.5 µM)	relative viability ([3]; first compound 1.581 µM)	relative viability ([3]; first compound 5 µM)	relative viability ([4]; first compound 0.05 µM)	relative viability ([4]; first compound 0.1581 µM)	relative viability ([4]; first compound 0.5 µM)	relative viability ([4]; first compound 1.581 µM)	relative viability ([4]; first compound 5 µM)
HOP-62	0.687	0.706	0.202	0.129	0.0896	0.411	0.417	0.403	0.148	0.107	0.653	0.694	0.597	0.15	0.114	0.261	0.302	0.265	0.123	0.0991
IA-LM	0.916	0.803	0.241	0.0678	0.0714															
LC-2-ad	0.559	0.543	0.129	0.161	0.129	0.457	0.422	0.401	0.237	0.194	0.639	0.594	0.201	0.123	0.133	0.244	0.281	0.248	0.213	0.171
LCLC-97TM1	0.803	0.822	0.0658	0.0665	0.0652	0.216	0.191	0.17	0.0856	0.111	0.743	0.74	0.761	0.214	0.128	0.215	0.217	0.147	0.11	0.0881
LCLC-103H	0.808	0.799	0.327	0.261	0.199	0.477	0.471	0.456	0.35	0.302	0.466	0.522	0.341	0.176	0.175	0.449	0.48	0.442	0.27	0.195
LK-2	0.241	0.159	0.125	0.124	0.12	0.78	0.293	0.444	0.252	0.113	0.282	0.369	0.262	0.154	0.151	0.386	0.268	0.168	0.115	0.0951
LOU-NH91	0.903	1.04	0.683	0.365	0.29	0.529	0.479	0.517	0.446	0.333	0.6	0.599	0.459	0.31	0.387	0.344	0.357	0.362	0.291	0.264
LU99A	0.445	0.401	0.196	0.123	0.115	0.408	0.386	0.345	0.184	0.145	0.493	0.548	0.256	0.182	0.135	0.204	0.169	0.204	0.154	0.146
LXF-289	0.78	0.622	0.421	0.11	0.0692	0.607	0.57	0.481	0.233	0.107	0.225	0.206	0.124	0.037	0.0349	0.897	0.674	0.597	0.184	0.0849
NCI-H23	0.519	0.284	0.0883	0.121	0.0755	0.313	0.408	0.285	0.148	0.121	0.801	0.636	0.426	0.11	0.0948	0.648	0.583	0.208	0.184	0.112
NCI-H322M	0.933	0.914	0.78	0.522	0.428	0.519	0.511	0.457	0.429	0.484	0.233	0.263	0.268	0.27	0.308	0.682	0.707	0.524	0.429	0.352
NCI-H358	0.589	0.541	0.0993	0.0786	0.0711	0.139	0.126	0.11	0.0792	0.0843	0.151	0.195	0.185	0.0783	0.0726	0.196	0.167	0.192	0.102	0.0855
NCI-H596	0.598	0.405	0.515	0.246	0.162						0.616	0.561	0.478	0.279	0.235	0.559	0.463	0.454	0.359	0.337
NCI-H727	1.28	1.14	0.673	0.579	0.591	0.701	0.716	0.608	0.547	0.628	0.383	0.349	0.362	0.225	0.329					
NCI-H1563											0.51	0.506	0.454	0.44	0.349	0.833	0.654	0.707	0.71	0.365
NCI-H1648	0.37	0.523	0.203	0.267	0.186	0.222	0.309	0.234	0.273	0.255						0.855	0.805	0.513	0.243	0.219
NCI-H1792						0.728	0.631	0.568	0.377	0.332	0.786	0.757	0.372	0.287	0.25	0.683	0.688	0.0781	0.0502	0.0387
